Source: ChEMBL document CHEMBL5375971, “Structure-Interaction Relationship of Polymyxins with Lung Surfactant” (2023)
Active and inactive are the calls of the source. No cut-off for these calls is given here. Where a SMILES comes first, the peptide text is derived from it. Bridges are numbered along the chain shown (N, C = ends). [ ]: non-standard residue; d: D form. The star is where a group is joined. X1 = CC[C@H](C)CCCCC(=O)*; dDab = NCC[C@@H](N)C(=O)O; Dab = NCC[C@H](N)C(=O)O

How the values were obtained:
Conditions in all cases: dose 0.25-4 mg/L
Pseudomonas aeruginosa [1] = test: Antibacterial activity against Pseudomonas aeruginosa ATCC 27853 assessed as decrease in bacterial growth at 0.25 to 4 mg/L in presence of lung surfactant by broth microdilution assay; format: functional, organism-based
Acinetobacter baumannii [2] = test: Antibacterial activity against Acinetobacter baumannii FADDI-AB030 assessed as decrease in bacterial growth at 0.25 to 4 mg/L in presence of lung surfactant by broth microdilution assay; format: functional, organism-based
Klebsiella pneumoniae [3] = test: Antibacterial activity against Klebsiella pneumoniae FADDI-KP065 assessed as decrease in bacterial growth at 0.25 to 4 mg/L in presence of lung surfactant by broth microdilution assay; format: functional, organism-based
Pseudomonas aeruginosa [4] = test: Antibacterial activity against Pseudomonas aeruginosa ATCC 27853 assessed as fold increase in MIC at 0.25 to 4 mg/L in presence of lung surfactant by broth microdilution assay; format: functional
Klebsiella pneumoniae [5] = test: Antibacterial activity against Klebsiella pneumoniae FADDI-KP065 assessed as fold increase in MIC at 0.25 to 4 mg/L in presence of lung surfactant by broth microdilution assay; format: functional
Acinetobacter baumannii [6] = test: Antibacterial activity against Acinetobacter baumannii FADDI-AB030 assessed as fold increase in MIC at 0.25 to 4 mg/L in presence of lung surfactant by broth microdilution assay; format: functional

Row | Compound | Activity (Pseudomonas aeruginosa [1]) | Activity (Acinetobacter baumannii [2]) | Activity (Klebsiella pneumoniae [3]) | fold change (FC) (Pseudomonas aeruginosa [4]) | fold change (FC) (Klebsiella pneumoniae [5]) | fold change (FC) (Acinetobacter baumannii [6])
1 | CC[C@H](C)CCCCC(=O)N[C@@H](CCN)C(=O)N[C@H](C(=O)N[C@@H](CCN)C(=O)N[C@H]1CCNC(=O)[C@H]([C@@H](C)O)NC(=O)[C@H](CCN)NC(=O)[C@H](CCN)NC(=O)[C@H](CC(C)C)NC(=O)[C@@H](Cc2ccccc2)NC(=O)[C@H](CCN)NC1=O)[C@@H](C)O (X1-[Dab]T[Dab][Dab][Dab][dF]L[Dab][Dab]T; lactam 4-C) | Active | Active | Active |  |  | 
2 | CCCCCCCCCC(=O)N[C@@H](CCN)C(=O)N[C@H](C(=O)N[C@@H](CCN)C(=O)N[C@H]1CCNC(=O)[C@H]([C@@H](C)O)NC(=O)[C@H](CCN)NC(=O)[C@H](CCN)NC(=O)[C@H]([C@H](C)O)NC(=O)[C@@H](CC(C)C)NC(=O)[C@H](CCN)NC1=O)[C@@H](C)O | Active | Active | Active |  |  | 
3 | COLISTIN | Active | Active | Active | 4 | 2 | 4
4 | CC[C@H](C)CCCCC(=O)N[C@@H](CCN)C(=O)N[C@H](C(=O)N[C@H](CCN)C(=O)N[C@H]1CCNC(=O)[C@H]([C@@H](C)O)NC(=O)[C@H](CCN)NC(=O)[C@H](CCN)NC(=O)[C@H]([C@@H](C)O)NC(=O)[C@@H](CC(C)C)NC(=O)[C@H](CCN)NC1=O)[C@@H](C)O (X1-[Dab]T[dDab][Dab][Dab][dL]T[Dab][Dab]T; lactam 4-C) | Active | Active | Active | 2 | 8 | 4
5 | CCCCCCCC[C@@H]1NC(=O)[C@@H](Cc2ccccc2)NC(=O)[C@@H](CCN)NC(=O)[C@@H](NC(=O)[C@H](CCN)NC(=O)[C@@H](NC(=O)[C@H](CCN)NC(=O)CCCCCCC)[C@@H](C)O)CCNC(=O)[C@H]([C@@H](C)O)NC(=O)[C@H](CCN)NC(=O)[C@H](CCN)NC1=O |  |  |  | 8 | 2 | 2
6 | CC[C@H](C)CCCCC(=O)N[C@@H](CCN)C(=O)N[C@H](C(=O)N[C@@H](CCN)C(=O)N[C@H]1CCNC(=O)[C@H]([C@@H](C)O)NC(=O)[C@H](CCN)NC(=O)[C@H](CCN)NC(=O)[C@H]([C@@H](C)O)NC(=O)[C@@H](CC(C)C)NC(=O)[C@H](CCN)NC1=O)[C@@H](C)O (X1-[Dab]T[Dab][Dab][Dab][dL]T[Dab][Dab]T; lactam 4-C) | Active | Active | Active | 2 | 4 | 4
7 | CCCCCC(=O)N[C@@H](CCN)C(=O)N[C@@H](C(=O)N[C@@H](CCN)C(=O)N[C@H]1CCNC(=O)[C@@H]([C@H](C)O)NC(=O)[C@H](CCN)NC(=O)[C@H](CCN)NC(=O)[C@H]([C@H](C)O)NC(=O)[C@@H](CC(C)C)NC(=O)[C@H](CCN)NC1=O)[C@H](C)O | inactive | inactive | inactive |  |  | 
